The text below walks through data of patent US10683487B2, “Myrmecridium flexuosum NUK-21, novel lactose oxidase isolated from Myrmecridium flexuosum NUK-21, and method for conversion of lactose into lactobionic acid by novel lactose oxidase” (NATIONAL UNIVERSITY OF KAOHSIUNG, priority 2017, dated 2020).

Where two headings read alike, the source gives them in different places.

One series relates to NUK-21 strain. The class given is cell-based, Myrmecridium flexuosum NUK-21.
Series [1] relates to lactose oxidase of the NUK-21 strain. Briefly: Effects of chemicals on enzyme activity (dissolved oxygen assay). The series is classed as biochemical, Myrmecridium flexuosum NUK-21. The protocol:
The purified enzyme was added to A buffer containing 1 mM of various chemical solution and incubated in a water bath at 30° C. for 1 hour. Dissolved oxygen assay was used to determine the enzyme activity of lactose oxidase.

For series [2] the test system is unchanged. The experiment in a line: Substrate specificity of lactose oxidase (OD500 nm peroxidase chromogen assay). The class given is biochemical, Myrmecridium flexuosum NUK-21. As to the method:
Fifty mM of various buffers with different pH values were prepared, including CH3COOH—CH3COONa (pH 4.5-5.5), K2HPO4—NaH2PO4 (pH 5.5-8.0), Tris-HCl (pH 7.0-9.0), and Na2CO3—NaHCO3 (pH 9.0-11). Enzyme activity was determined by peroxidase chromogen method (Clin Chem, 1974; 20:470-475). The substrate, buffer and enzyme were premixed and reacted for 2 minutes, and then 4-aminoantipyrine (4-AA) coloring solution was added for reaction. A spectrophotometer was used to detect the absorbance of OD500 nm at room temperature (detection at every 15 seconds for a total of 90 seconds). The principle of the 4-AA assay is that the lactose oxidase oxidized lactose to lactobionic acid, which reduces dissolved oxygen to hydrogen peroxide, and the hydrogen peroxide, phenol, and 4-AA were catalyzed by the peroxidase to produce a red quinoneimine structure and show a stable signal at OD 500 nm.
The enzyme activity was defined as the enzyme concentration that produces 1 μmole hydrogen peroxide per minute. […] Calculation of enzyme activity: unit/ml=(ΔA500 nm/t)×(Vt/6.8)×(1/Ve)×n, in which ΔA500 nm:A500 nm variation in t minutes, 6.8: absorption coefficient of chromogenic material (mM^−1 cm^−1), Vt: total reaction volume, Ve: volume of enzyme was added, and n: fold of dilution of enzyme solution.
A spectrophotometer was used to detect the absorbance of OD500 nm at room temperature (detection at every 15 seconds for a total of 90 seconds), and the enzyme activity was determined.

The test system is the same in series [3]. The class given is biochemical, Myrmecridium flexuosum NUK-21.
The test system of series [4] is carbohydrate oxidases from different strains. Conditions: cited from earlier work.
A further series deals with carbohydrate oxidases. Conditions: cited from earlier work.
[5] abbreviates: metal ions 0.01%, 4% wheat bran medium, 30° C., 4 days.
Setting [6] is: metal ions 1 mM, 30° C., 1 hour, 0.7 mM lactose.

In the case of `O=S(=O)([O-])[O-].[Mn+2]` [MnSO4], the Enzyme activity in the series on NUK-21 strain (setting [5]) is 0.37 unit/ml. On the same count and under the same terms, next, `O=S(=O)([O-])[O-].[Zn+2]` [ZnSO4]: 0.22 unit/ml.

As for `O=C(CBr)c1ccc(Br)cc1` [2,4′-dibromoacetophenone], in series [1] (chemical 1 mM, 30° C., 1 hour), the Relative activity came out at 99%. The same measure, in the same setting: the same measure for `OO` [H2O2]: 100%. For the molecule `OC[C@@H](O)[C@H](O)[C@@H](O)CO` [Xylitol], the Relative activity in series [2] (0.7 mM substrate) and in series [2] (7 mM substrate) was 0% each time.

As for `OC[C@H]1O[C@@](CO)(O[C@H]2O[C@H](CO)[C@@H](O)[C@H](O)[C@H]2O)[C@@H](O)[C@@H]1O` [Sucrose], the Relative activity in series [2] (0.7 mM substrate) and in series [2] (7 mM substrate) was 0% in each case. As to `[Cl][Ni][Cl]` [NiCl2], the Enzyme activity in the series on NUK-21 strain (setting [5]) is reported as 0.43 unit/ml. The same measure, in the same setting: the same measure for `[Cl][Sn]([Cl])([Cl])[Cl]` [SnCl4]: 0.32 unit/ml. On to `O=C[C@H](O)[C@@H](O)[C@H](O)CO` [Xylose], for which the Relative activity in series [2] (0.7 mM substrate) and in series [2] (7 mM substrate) was 0% each time.

Turning to `O=C(CO)[C@@H](O)[C@H](O)[C@H](O)CO` [Fructose], the Relative activity in series [2] (0.7 mM substrate) and in series [2] (7 mM substrate) was 0% throughout. As to `O=S(=O)([O-])[O-].[Cu+2]` [CuSO4], the Enzyme activity in the series with NUK-21 strain (setting [5]) came to 0.61 unit/ml. Also, in series [3] (setting [6]), the Relative activity was determined as 96.8%. For the molecule `OC[C@H]1O[C@@H](O[C@H]2[C@H](O)[C@@H](O)C(O)O[C@@H]2CO)[C@H](O)[C@@H](O)[C@H]1O` (stereo partly shown) [Lactose], the Relative activity in series [2] (0.7 mM substrate) and in series [2] (7 mM substrate) was 100% each time. On to `O=S(=O)([O-])[O-].[Fe+2]` [FeSO4], for which the Relative activity in series [3] (setting [6]) was 61.1%; in series [3] (metal ions 1 mM, 30° C., 1 hour, 0.7 mM lactose, listed as Fe^2+), 61.3%.

Regarding `O=S(=O)([O-])[O-].[Cd+2]` [CdSO4], in the series on NUK-21 strain (setting [5]), the Enzyme activity is given as 0.42 unit/ml. For the same molecule, in series [3] (setting [6]), the Relative activity was 100%. With `O=C(O)[C@H](O)[C@@H](O)[C@H](O[C@@H]1O[C@H](CO)[C@H](O)[C@H](O)[C@H]1O)[C@H](O)CO` [lactobionic acid], the Relative activity in series [2] (0.7 mM substrate) and in series [2] (7 mM substrate) was 0% throughout. On to `O=S(=O)([O-])[O-].[Na+].[Na+]` [Na2SO4], for which the Enzyme activity in the series on NUK-21 strain (setting [5]) turned out to be 0.26 unit/ml.

Turning to `[Cl][Sn][Cl]` [SnCl2], the Relative activity is recorded as 61.3% in series [3] (setting [6]) and 89.7% in series [3] (metal ions 1 mM, 30° C., 1 hour, 0.7 mM lactose, listed as Sn^2+).

`[Cl][Hg][Cl]` [HgCl2] came in with an Enzyme activity with NUK-21 strain (setting [5]) of 0.02 unit/ml. Also, the Relative activity in series [3] (setting [6]) came to 153.8%.

Turning to `O=C[C@H](O)[C@@H](O)[C@@H](O)[C@H](O)CO` [Galactose], the Relative activity in series [2] (0.7 mM substrate) was 0%; in series [2] (7 mM substrate) it was 1.8%.

For `c1cnc2c(c1)ccc1cccnc12` [1,10-phenanthroline], the Relative activity in series [1] (chemical 1 mM, 30° C., 1 hour) is 98.8%. `O=S(=O)(F)Cc1ccccc1` [PMSF]: the Relative activity in series [1] (chemical 1 mM, 30° C., 1 hour) stood at 104.9%. Take `O=[N+]([O-])[O-].[Ag+]` [AgNO3]: in the series with NUK-21 strain (setting [5]), the Enzyme activity is recorded as 0.28 unit/ml. For the same molecule, the Relative activity in series [3] (setting [6]) is given as 107.9%. Turning to `O=S(=O)([O-])[O-].O=S(=O)([O-])[O-].O=S(=O)([O-])[O-].[Al+3].[Al+3]` [Al2(SO4)3], in the series with NUK-21 strain (setting [5]), the Enzyme activity is 0.37 unit/ml. For `[N-]=[N+]=[N-].[Na+]` [NaN3], the “effect on enzyme activity (in words)” value in series [1] (chemical 1 mM) is “activated”. Further, the Relative activity in series [1] (chemical 1 mM, 30° C., 1 hour) turned out to be 131.3%.

Regarding `[Cl-].[Cl-].[Co+2]` [CoCl2], the Enzyme activity in the series with NUK-21 strain was 0.26 unit/ml. In addition, in series [3], the Relative activity is given as 110.2%. With `CCN1C(=O)C=CC1=O` [N-ethylmaleimide], in series [1] (chemical 1 mM), the “effect on enzyme activity (in words)” value is “activated”. The Relative activity in series [1] (chemical 1 mM, 30° C., 1 hour) is 139.5%. With `OC[C@@H](O)[C@@H](O)[C@H](O)[C@@H](O)CO` [Sorbitol], the Relative activity in series [2] (0.7 mM substrate) and in series [2] (7 mM substrate) was 0% each time. Regarding `O=C(O)CN(CCN(CC(=O)O)CC(=O)O)CC(=O)O` [EDTA], in series [1], the Relative activity is 136.3% and the “effect on enzyme activity (in words)” value is on record as “activated”. In the series with NUK-21 strain (setting [5]), `[Ca+2].[Cl-].[Cl-]` [CaCl2] yielded an Enzyme activity of 0.20 unit/ml. Further, the Relative activity in series [3] (setting [6]) turned out to be 109.5%. Regarding `OC[C@H]1O[C@H](O[C@H]2[C@H](O)[C@@H](O)[C@H](O)O[C@@H]2CO)[C@H](O)[C@@H](O)[C@@H]1O` [Maltose], the Relative activity is reported as 4.1% in series [2] (0.7 mM substrate) and 24.8% in series [2] (7 mM substrate).

For `O=C[C@H](O)[C@@H](O)[C@H](O[C@@H]1O[C@H](CO)[C@@H](O)[C@H](O)[C@H]1O)[C@H](O)CO` [Cellobiose], the Relative activity in series [2] (0.7 mM substrate) was found to be 83.4%; in series [2] (7 mM substrate), 81.7%. Consider `O=S(=O)([O-])[O-].[Ni+2]` [NiSO4], for which the Relative activity in series [3] (setting [6]) is listed as 100%. Molecule `[Cl][Fe]([Cl])[Cl]` [FeCl3] gave an Enzyme activity in the series with NUK-21 strain (setting [5]) of 0.27 unit/ml. In addition, the Relative activity in series [3] (setting [6]) is given as 103.2%. Turning to `O=S(=O)([O-])[O-].[K+].[K+]` [K2SO4], the Enzyme activity in the series with NUK-21 strain (setting [5]) came to 0.26 unit/ml. In the series on NUK-21 strain (setting [5]), `[Cl][Pb][Cl]` [PbCl2] came in with an Enzyme activity of 0.29 unit/ml. Further, the Relative activity in series [3] (setting [6]) is listed as 89.7%.

Molecule `O=S(=O)([O-])[O-].O=S(=O)([O-])[O-].O=S(=O)([O-])[O-].[Fe+3].[Fe+3]` [Fe2(SO4)3] returned an Enzyme activity in the series with NUK-21 strain (setting [5]) of 0.25 unit/ml.

B1: Glucooligosaccharide oxidase: carbohydrate oxidase from Acremonium strictum (protein, UniProt Q6PW77 26-499, looked up)
Glucooligosaccharide oxidase: NSINACLAAADVEFHEEDSEGWDMDGTAFNLRVDYDPAAIAIPRSTEDIAAAVQCGLDAGVQISAKGGGHSYGSYGFGGEDGHLMLELDRMYRVSVDDNNVATIQGGARLGYTALELLDQGNRALSHGTCPAVGVGGHVLGGGYGFATHTHGLTLDWLIGATVVLADASIVHVSETENADLFWALRGGGGGFAIVSEFEFNTFEAPEIITTYQVTTTWNRKQHVAGLKALQDWAQNTMPRELSMRLEINANALNWEGNFFGNAKDLKKILQPIMKKAGGKSTISKLVETDWYGQINTYLYGADLNITYNYDVHEYFYANSLTAPRLSDEAIQAFVDYKFDNSSVRPGRGWWIQWDFHGGKNSALAAVSNDETAYAHRDQLWLWQFYDSIYDYENNTSPYPESGFEFMQGFVATIEDTLPEDRKGKYFNYADTTLTKEEAQKLYWRGNLEKLQAIKAKYDPEDVFGNVVSVEPIA
As usually defined, the Km is the substrate concentration at which the rate is half of its maximum. On to B1, for which the Substrate specificity in series [4] (cellobiose) is 120%; in series [4] (lactose), 100%. Moreover, the Km in series [4] (substrate cellobiose) was 120 µM; in series [4] (substrate lactose), 380 µM. For the same molecule, in the series on carbohydrate oxidases, the “optimum pH” value is reported as 10.
